Several values for one entry are separate records, joined by “and”; a condition that tells them apart may be missing. Equal entries are not always repeated. Toxic doses and inconclusive results are not listed. The calls were made as follows: active = survival T/C of 150% or more; inactive = T/C below 125% in these data.
System: BDF1 mice, P388 leukemia ip, median survival T/C
Experiment: NCI In Vivo Anticancer Drug Screen. Data for tumor model P388 Leukemia (intraperitoneal) in B6D2F1 (BDF1) mice
Settings: endpoint: median survival time, higher = longer survival
Outline: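 Read-out is survival of treated animals expressed relative to the vehicle group, as a T/C ratio.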

[1] = dose: 50.0 mg/kg/injection, schedule: Q01DX009 (ip), vehicle: Klucel (hydroxypropylcellulose) (HPC)
[2] = dose: 50.0 mg/kg/injection, schedule: Q01DX005 (ip), vehicle: saline with Tween-80
[3] = dose: 100.0 mg/kg/injection, schedule: Q01DX005 (ip), vehicle: saline with Tween-80
[4] = dose: 200.0 mg/kg/injection, schedule: Q01DX005 (ip), vehicle: saline with Tween-80

Measured: T/C

CO[C@H]1/C=C/O[C@@]2(C)Oc3c(C)c(O)c4c(O)c(c(/C=N/N5C(C)CN(Cc6ccccc6)CC5C)c(O)c4c3C2=O)NC(=O)/C(C)=C\C=C\[C@H](C)[C@H](O)[C@@H](C)[C@@H](O)[C@@H](C)[C@H](OC(C)=O)[C@@H]1C (stereo partly specified)
inactive: dose: 12.5 mg/kg/injection, schedule: Q01DX005 (ip), vehicle: Klucel (hydroxypropylcellulose) (HPC) 94 % of control | dose: 12.5 mg/kg/injection, schedule: Q01DX005 (ip), vehicle: other 97 % of control | dose: 12.5 mg/kg/injection, schedule: Q01DX005 (oral), vehicle: other 103 % of control | dose: 12.5 mg/kg/injection, schedule: Q02DX Z (oral), vehicle: Klucel (hydroxypropylcellulose) (HPC) 89 % of control | dose: 25.0 mg/kg/injection, schedule: Q01DX005 (ip), vehicle: Klucel (hydroxypropylcellulose) (HPC) 97 % of control | dose: 25.0 mg/kg/injection, schedule: Q01DX005 (ip), vehicle: other 106 % of control | dose: 25.0 mg/kg/injection, schedule: Q01DX005 (oral), vehicle: Klucel (hydroxypropylcellulose) (HPC) 104 % of control | dose: 25.0 mg/kg/injection, schedule: Q01DX005 (oral), vehicle: other 103 % of control | dose: 25.0 mg/kg/injection, schedule: Q02DX Z (ip), vehicle: Klucel (hydroxypropylcellulose) (HPC) 105 % of control | dose: 50.0 mg/kg/injection, schedule: Q01DX005 (ip), vehicle: Klucel (hydroxypropylcellulose) (HPC) 94 % of control | dose: 50.0 mg/kg/injection, schedule: Q01DX005 (ip), vehicle: other 103 % of control | dose: 50.0 mg/kg/injection, schedule: Q01DX005 (oral), vehicle: Klucel (hydroxypropylcellulose) (HPC) 104 % of control | dose: 50.0 mg/kg/injection, schedule: Q01DX005 (oral), vehicle: other 104 % of control | [1] 90 % of control | dose: 50.0 mg/kg/injection, schedule: Q02DX Z (ip), vehicle: Klucel (hydroxypropylcellulose) (HPC) 105 % of control | dose: 50.0 mg/kg/injection, schedule: Q02DX Z (oral), vehicle: Klucel (hydroxypropylcellulose) (HPC) 99 % of control | dose: 100.0 mg/kg/injection, schedule: Q01DX005 (ip), vehicle: Klucel (hydroxypropylcellulose) (HPC) 100 % of control | dose: 100.0 mg/kg/injection, schedule: Q01DX005 (ip), vehicle: other 106 % of control | dose: 100.0 mg/kg/injection, schedule: Q01DX005 (oral), vehicle: Klucel (hydroxypropylcellulose) (HPC) 105 % of control | dose: 100.0 mg/kg/injection, schedule: Q01DX005 (oral), vehicle: other 114 % of control | dose: 100.0 mg/kg/injection, schedule: Q01DX009 (ip), vehicle: Klucel (hydroxypropylcellulose) (HPC) 100 % of control | dose: 100.0 mg/kg/injection, schedule: Q02DX Z (ip), vehicle: Klucel (hydroxypropylcellulose) (HPC) 110 % of control | dose: 100.0 mg/kg/injection, schedule: Q02DX Z (oral), vehicle: Klucel (hydroxypropylcellulose) (HPC) 100 % of control | dose: 200.0 mg/kg/injection, schedule: Q01DX005 (ip), vehicle: Klucel (hydroxypropylcellulose) (HPC) 86 % of control | dose: 200.0 mg/kg/injection, schedule: Q01DX005 (ip), vehicle: other 112 % of control | dose: 200.0 mg/kg/injection, schedule: Q01DX005 (oral), vehicle: Klucel (hydroxypropylcellulose) (HPC) 105 % of control | dose: 200.0 mg/kg/injection, schedule: Q01DX009 (ip), vehicle: Klucel (hydroxypropylcellulose) (HPC) 100 % of control | dose: 200.0 mg/kg/injection, schedule: Q02DX Z (ip), vehicle: Klucel (hydroxypropylcellulose) (HPC) 110 % of control | dose: 200.0 mg/kg/injection, schedule: Q02DX Z (oral), vehicle: Klucel (hydroxypropylcellulose) (HPC) 89 % of control | dose: 400.0 mg/kg/injection, schedule: Q01DX005 (ip), vehicle: Klucel (hydroxypropylcellulose) (HPC) 97 % of control | dose: 400.0 mg/kg/injection, schedule: Q01DX005 (oral), vehicle: Klucel (hydroxypropylcellulose) (HPC) 106 % of control | dose: 400.0 mg/kg/injection, schedule: Q02DX Z (ip), vehicle: Klucel (hydroxypropylcellulose) (HPC) 116 % of control | dose: 400.0 mg/kg/injection, schedule: Q02DX Z (oral), vehicle: Klucel (hydroxypropylcellulose) (HPC) 91 % of control | dose: 800.0 mg/kg/injection, schedule: Q01DX005 (oral), vehicle: Klucel (hydroxypropylcellulose) (HPC) 104 % of control | dose: 800.0 mg/kg/injection, schedule: Q02DX Z (ip), vehicle: Klucel (hydroxypropylcellulose) (HPC) 110 % of control | dose: 1600.0 mg/kg/injection, schedule: Q01DX005 (oral), vehicle: Klucel (hydroxypropylcellulose) (HPC) 110 % of control | dose: 1600.0 mg/kg/injection, schedule: Q02DX Z (ip), vehicle: Klucel (hydroxypropylcellulose) (HPC) 109 % of control

O=C(CSc1nc2ccccc2s1)c1sc2sc3ccccc3[n+]2c1[O-]
inactive: [2] 97 % of control | [3] 97 % of control | [4] 87 % of control

COc1ccc2c(c1)CCC1C2CCC2(C)/C(=N/O)C(Cl)C(O)C12 (stereo unspecified)
inactive: dose: 6.25 mg/kg/injection, schedule: Q01DX001 (ip), vehicle: saline with Tween-80 100 % of control | dose: 12.5 mg/kg/injection, schedule: Q01DX001 (ip), vehicle: saline with Tween-80 109 % of control | dose: 25.0 mg/kg/injection, schedule: Q01DX001 (ip), vehicle: saline with Tween-80 97 % of control

CC1(C)CS(=O)(=O)CC1=O
inactive: dose: 25.0 mg/kg/injection, schedule: Q01DX001 (ip), vehicle: Klucel (hydroxypropylcellulose) (HPC) 100 % of control | dose: 50.0 mg/kg/injection, schedule: Q01DX001 (ip), vehicle: Klucel (hydroxypropylcellulose) (HPC) 100 % of control | dose: 100.0 mg/kg/injection, schedule: Q01DX001 (ip), vehicle: Klucel (hydroxypropylcellulose) (HPC) 90 % of control and 104 % of control

COc1cc2c3c(c1O)Oc1ccc(cc1)C[C@@H]1c4c(cc(OC)c(O)c4Oc4ccc(cc4)C[C@H]3N(C)CC2)CCN1C
inactive: dose: 40.0 mg/kg/injection, schedule: Q01DX010 (ip), vehicle: saline 95 % of control | dose: 80.0 mg/kg/injection, schedule: Q01DX010 (ip), vehicle: saline 100 % of control | dose: 160.0 mg/kg/injection, schedule: Q01DX010 (ip), vehicle: saline 105 % of control | dose: 320.0 mg/kg/injection, schedule: Q01DX010 (ip), vehicle: saline 90 % of control

C[C@]12CC[C@H](O)C[C@@]1(O)CC[C@@H]1[C@@H]2CC[C@]2(C)[C@@H](c3ccc(=O)oc3)CC[C@]12O
inactive: dose: 1.25 mg/kg/injection, schedule: Q01DX009 (ip), vehicle: Klucel (hydroxypropylcellulose) (HPC) 93 % of control | dose: 2.5 mg/kg/injection, schedule: Q01DX009 (ip), vehicle: Klucel (hydroxypropylcellulose) (HPC) 94 % of control | dose: 5.0 mg/kg/injection, schedule: Q01DX009 (ip), vehicle: Klucel (hydroxypropylcellulose) (HPC) 99 % of control | dose: 6.2 mg/kg/injection, schedule: Q01DX010 (ip), vehicle: carboxymethylcellulose (CMC) 105 % of control | dose: 10.0 mg/kg/injection, schedule: Q01DX009 (ip), vehicle: Klucel (hydroxypropylcellulose) (HPC) 101 % of control | dose: 12.5 mg/kg/injection, schedule: Q01DX010 (ip), vehicle: carboxymethylcellulose (CMC) 90 % of control | dose: 20.0 mg/kg/injection, schedule: Q01DX009 (ip), vehicle: Klucel (hydroxypropylcellulose) (HPC) 105 % of control | dose: 25.0 mg/kg/injection, schedule: Q01DX010 (ip), vehicle: carboxymethylcellulose (CMC) 100 % of control

CCN1/C(=C/C=C/C=C\C=C\c2sc3ccc4ccccc4c3[n+]2CC)Sc2ccc3ccccc3c21
active: dose: 1.56 mg/kg/injection, schedule: Q04DX002 (ip), vehicle: saline with Tween-80 173 % of control | dose: 3.12 mg/kg/injection, schedule: Q04DX002 (ip), vehicle: saline with Tween-80 162 % of control

CC(=O)Nc1cc2c(cc1[N+](=O)[O-])-c1ccccc1C2O (stereo unspecified)
inactive: dose: 100.0 mg/kg/injection, schedule: Q01DX009 (ip), vehicle: saline with Tween-80 100 % of control | dose: 100.0 mg/kg/injection, schedule: Q04DX003 (ip), vehicle: saline with Tween-80 100 % of control | dose: 200.0 mg/kg/injection, schedule: Q01DX009 (ip), vehicle: saline with Tween-80 90 % of control | dose: 200.0 mg/kg/injection, schedule: Q04DX003 (ip), vehicle: saline with Tween-80 104 % of control | dose: 400.0 mg/kg/injection, schedule: Q04DX003 (ip), vehicle: saline with Tween-80 104 % of control

CNC(=O)OCc1c(COC(=O)NC)c(-c2ccc(Cl)cc2)n2c1CCC2
inactive: [1] 96 % of control

CCC(CC)C(=O)NC
inactive: [2] 104 % of control | [3] 104 % of control | [4] 95 % of control

O=C(O)c1ccccc1O.O=C(O)c1ccccc1O.[O]=[V]
inactive: dose: 8.0 mg/kg/injection, schedule: Q01DX010 (ip), vehicle: carboxymethylcellulose (CMC) 90 % of control | dose: 16.0 mg/kg/injection, schedule: Q01DX010 (ip), vehicle: carboxymethylcellulose (CMC) 100 % of control

Reference: PubChem BioAssay AID328 (DTP/NCI, 2004)
